Results published in patent publication US7902175B2, “Aminopropanol derivatives” (Novartis AG, priority 2003, dated 2011).

Legend:
human S1P receptors = test: GTPγS binding assay, S1P receptors in general; type: biochemical
Source text: (§1) The compounds of the invention have binding affinity to individual human S1P receptors as determined in following assays:
(§2) Transient Transfection of Human S1P Receptors into HEK293 Cells
S1P receptors and Gi proteins are cloned, and equal amounts of 4 cDNAs for the S1P receptor, Gi-α, Gi-β and Gi-γ are mixed and used to transfect monolayers of HEK293 cells using the calcium phosphate precipitate method (M. Wigler et al., Cell. 1977; 11; 223 and DS. Im et al., Mol. Pharmacol. 2000; 57; 753). Briefly, a DNA mixture containing 25 μg of DNA and 0.25 M CaCl is added to HEPES-buffered 2 mM Na2HPO4. Subconfluent monolayers of HEK293 cells are poisoned with 25 […], and the DNA precipitate is then applied to the cells. […] Protein concentration is determined spectroscopically by Bradford protein assay. […]
GTPγS binding experiments are performed as described by D S. Im et al., Mol. Pharmacol. 2000; 57:753. Ligand-mediated GTPγS binding to G-proteins is measured in GTP binding buffer (in mM: 50 HEPES, 100 NaCl, 10 MgCl2, pH 7.5) using 25 μg of a membrane preparation from transiently transfected HEK293 cells. […] Bound GTPγS is separated from unbound using the Brandel harvester (Gaithersburg, Md.) and counted with a liquid scintillation counter.

S1P-4 = molecular target: T1, S1P-4 (Homo sapiens, UniProt O95977); test: GTPγS binding assay using S1P receptor/HEK293 membrane preparations; type: biochemical; conditions: for EC50: GTPγS binding, transiently transfected HEK293 membranes
T1 construct: expressed in transfected cells; host or cells: HEK293 (transient, calcium phosphate); crude membranes
T1 sequence (O95977 1-384): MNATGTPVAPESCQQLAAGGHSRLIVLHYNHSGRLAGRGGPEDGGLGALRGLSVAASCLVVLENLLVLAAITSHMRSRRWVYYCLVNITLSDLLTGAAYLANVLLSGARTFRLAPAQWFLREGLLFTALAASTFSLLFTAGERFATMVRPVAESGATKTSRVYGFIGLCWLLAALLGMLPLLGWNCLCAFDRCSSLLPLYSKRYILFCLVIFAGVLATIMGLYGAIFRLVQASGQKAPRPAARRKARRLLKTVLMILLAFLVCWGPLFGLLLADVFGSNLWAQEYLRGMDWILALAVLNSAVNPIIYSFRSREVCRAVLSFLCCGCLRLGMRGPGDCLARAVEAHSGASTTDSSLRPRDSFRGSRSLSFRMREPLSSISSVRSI
Source text: as §1, §2
(§3) S1P receptors and Gi proteins are cloned, and equal amounts of 4 cDNAs for the S1P receptor, Gi-α, Gi-β and Gi-γ are mixed and used to transfect monolayers of HEK293 cells using the calcium phosphate precipitate method (M. Wigler et al., Cell. 1977; 11; 223 and DS. Im et al., Mol. Pharmacol. 2000; 57; 753). Briefly, a DNA mixture containing 25 μg of DNA and 0.25 M CaCl is added to HEPES-buffered 2 mM Na2HPO4. Subconfluent monolayers of HEK293 cells are poisoned with 25 […], and the DNA precipitate is then applied to the cells. After 4 h, the monolayers are washed with phosphate-buffered saline and refed media (90% 1:1 Dulbecco's modified essential media (DMEM):F-12+10% fetal bovine serum). The cells are harvested 48-72 h after addition of the DNA by scraping in HME buffer (in mM: 20 HEPES, 5 MgCl2, 1 EDTA, pH 7.4) containing 10% sucrose on ice, and disrupted using a Dounce homogenizer. After centrifugation at 800×g, the supernatant is diluted with HME without sucrose and centrifuged at 100,000×g for 1 h. The resulting pellet is rehomogenized and centrifuged a second hour at 100,000×g. This crude membrane pellet is resuspended in HME with sucrose, aliquoted, and snap-frozen by immersion in liquid nitrogen. The membranes are stored at […] Protein concentration is determined spectroscopically by Bradford protein assay.
(§4) GTPγS Binding Assay Using S1P Receptor/HEK293 Membrane Preparations
(§5) GTPγS binding experiments are performed as described by D S. Im et al., Mol. Pharmacol. 2000; 57:753. Ligand-mediated GTPγS binding to G-proteins is measured in GTP binding buffer (in mM: 50 HEPES, 100 NaCl, 10 MgCl2, pH 7.5) using 25 μg of a membrane preparation from transiently transfected HEK293 cells. Ligand is added to membranes in the presence of 10 μM GDP and 0.1 nM [^35S]GTPγS (1200 Ci/mmol) and incubated at 30° C. for 30 min. Bound GTPγS is separated from unbound using the Brandel harvester (Gaithersburg, Md.) and counted with a liquid scintillation counter.

S1P-5 = molecular target: T2, S1P-5 (Homo sapiens, UniProt Q9H228); test: as above; type: biochemical
T2 construct: expressed in transfected cells; host or cells: HEK293 (transient, calcium phosphate); crude membranes
T2 sequence (Q9H228 whole entry): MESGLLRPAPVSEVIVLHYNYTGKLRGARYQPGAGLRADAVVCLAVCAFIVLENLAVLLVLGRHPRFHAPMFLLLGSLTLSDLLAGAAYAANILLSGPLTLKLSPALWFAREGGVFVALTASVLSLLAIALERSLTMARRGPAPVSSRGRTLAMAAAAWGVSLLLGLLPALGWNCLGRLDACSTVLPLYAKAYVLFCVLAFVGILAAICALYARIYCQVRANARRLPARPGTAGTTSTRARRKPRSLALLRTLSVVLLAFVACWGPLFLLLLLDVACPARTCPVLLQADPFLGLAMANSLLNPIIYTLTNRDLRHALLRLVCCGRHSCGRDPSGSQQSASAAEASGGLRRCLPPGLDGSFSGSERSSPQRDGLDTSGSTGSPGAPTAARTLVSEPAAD
Procedure: as §2
as §3, with “Briefly,” for “S1P receptors and Gi proteins are cloned, and equal amounts of 4 cDNAs for the S1P receptor, Gi-α, Gi-β and Gi-γ are mixed and used to transfect monolayers of HEK293 cells using the calcium phosphate precipitate method (M. Wigler et al., Cell. 1977; 11; 223 and DS. Im et al., Mol. Pharmacol. 2000; 57; 753). Briefly,”
as §4
as §5, with “Ligand-mediated” for “GTPγS binding experiments are performed as described by D S. Im et al., Mol. Pharmacol. 2000; 57:753. Ligand-mediated”

S1P-1 = molecular target: T3, S1P-1 (Homo sapiens, UniProt P21453); test: as above; type: biochemical
T3 construct: expressed in transfected cells; host or cells: HEK293 (transient, calcium phosphate); crude membranes
T3 sequence (P21453 whole entry): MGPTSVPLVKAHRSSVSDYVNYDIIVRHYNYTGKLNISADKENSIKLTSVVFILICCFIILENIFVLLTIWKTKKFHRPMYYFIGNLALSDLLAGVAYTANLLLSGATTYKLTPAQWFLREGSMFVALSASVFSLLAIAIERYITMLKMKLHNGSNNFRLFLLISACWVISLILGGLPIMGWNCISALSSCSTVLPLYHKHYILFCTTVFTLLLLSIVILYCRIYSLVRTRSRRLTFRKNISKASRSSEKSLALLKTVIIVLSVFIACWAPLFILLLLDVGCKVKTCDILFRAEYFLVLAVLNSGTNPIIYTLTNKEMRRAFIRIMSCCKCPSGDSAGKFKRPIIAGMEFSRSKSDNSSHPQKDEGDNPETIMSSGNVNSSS
Procedure: as §2
as §3, with “Briefly,” for “S1P receptors and Gi proteins are cloned, and equal amounts of 4 cDNAs for the S1P receptor, Gi-α, Gi-β and Gi-γ are mixed and used to transfect monolayers of HEK293 cells using the calcium phosphate precipitate method (M. Wigler et al., Cell. 1977; 11; 223 and DS. Im et al., Mol. Pharmacol. 2000; 57; 753). Briefly,”
as §4
as §5, with “Ligand-mediated” for “GTPγS binding experiments are performed as described by D S. Im et al., Mol. Pharmacol. 2000; 57:753. Ligand-mediated”

S1P-3 = molecular target: T4, S1P-3 (Homo sapiens, UniProt Q99500); test: as above; type: biochemical
T4 construct: expressed in transfected cells; host or cells: HEK293 (transient, calcium phosphate); crude membranes
T4 sequence (Q99500 whole entry): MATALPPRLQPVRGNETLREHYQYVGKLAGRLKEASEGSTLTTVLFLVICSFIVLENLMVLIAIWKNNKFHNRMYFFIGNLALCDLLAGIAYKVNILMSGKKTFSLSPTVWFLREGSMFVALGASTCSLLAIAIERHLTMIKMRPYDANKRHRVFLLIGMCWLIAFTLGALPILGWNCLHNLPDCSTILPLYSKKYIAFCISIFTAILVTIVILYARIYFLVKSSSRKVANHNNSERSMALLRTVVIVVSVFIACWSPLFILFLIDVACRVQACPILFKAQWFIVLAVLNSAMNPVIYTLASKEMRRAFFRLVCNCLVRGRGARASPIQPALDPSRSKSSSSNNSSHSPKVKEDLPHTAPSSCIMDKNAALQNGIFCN
Procedure: as §2, §3, §4, §5

S1P-2 = molecular target: T5, S1P-2 (Homo sapiens, UniProt O95136); test: as above; type: biochemical; conditions: transiently transfected HEK293 membranes
T5 construct: expressed in transfected cells; host or cells: HEK293 (transient, calcium phosphate); crude membranes
T5 sequence (O95136 whole entry): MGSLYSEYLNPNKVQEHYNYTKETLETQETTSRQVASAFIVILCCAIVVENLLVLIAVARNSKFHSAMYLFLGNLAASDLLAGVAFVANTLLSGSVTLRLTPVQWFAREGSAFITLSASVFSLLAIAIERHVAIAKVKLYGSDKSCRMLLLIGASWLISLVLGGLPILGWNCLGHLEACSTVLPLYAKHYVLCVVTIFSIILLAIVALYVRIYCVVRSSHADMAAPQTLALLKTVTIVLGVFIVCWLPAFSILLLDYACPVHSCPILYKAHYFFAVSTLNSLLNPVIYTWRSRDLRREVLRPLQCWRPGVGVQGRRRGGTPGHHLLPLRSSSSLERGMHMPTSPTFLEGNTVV
Procedure: as §2, §3, §4, §5

[1] = Chiral HPLC determination of FTY720-phosphate enantiomers in blood after dosing 14C-labeled FTY720; type: in vivo; conditions: rats, orally 7.5 mg/kg or intravenous infusion 4 mg/kg; blood e.g. 3 or 72 hours after dosing
Source text: In a further aspect, the present invention provides a method of determining the amount of the R and/or S isomers of a compound of formula II present in a sample, comprising (a) reacting the compound of formula II present in the sample with benzene-1,2-dicarbaldehyde to form a compound of formula I, and separating the R and S isomers of the compound of formula I by HPLC. The HPLC is preferably performed as described above, using a chiral ion-exchange phase e.g. based on quinine carbamate or quinidine carbamate. The compounds of formula I are useful as intermediates in such a method. The sample may be e.g. a sample derived from a bodily fluid e.g. blood, plasma, saliva, or urine, and may be first subjected to one or more separation steps, (e.g. extraction with methanol and/or non-chiral HPLC) in order to separate the compound of formula II from the fluid. By such a method the amount of the active R or S enantiomer in the sample may be determined. […]
For example, achiral 14C-labeled FTY720 is administered to rats either orally (7.5 mg/kg) or by intravenous infusion (4 mg/kg). […] The derivative is spiked with unlabelled OPA-derivatized R and S FTY720-phosphate as retention time markers (monitored by UV at 215 nm) and subjected to chiral HPLC separation using a ProntoSIL Chiral AX QN-1 column.

[2] = GTPγS binding, transiently transfected HEK293 membranes

SMILES: CCCCCCCCc1ccc(CCC(N)(CO)COP(=O)(O)O)cc1 (single isomer, unassigned) [(R)-FTY720-P, phosphoric acid mono-[2-amino-2-hydroxymethyl-4-(4-octyl-phenyl)-butyl]ester]
- agonistic effects on S1P receptors (human S1P receptors): only at very high concentrations
- EC50 (S1P-4): 80.1 nM

SMILES: CCCCCCCCc1ccc(CCC(N)(CO)COP(=O)(O)O)cc1 (single isomer, unassigned) [(S)-FTY720-P, phosphoric acid mono-[2-amino-2-hydroxymethyl-4-(4-octyl-phenyl)-butyl]ester]
- agonist character on S1P5 (S1P-5; in the low nanomolar range): partial agonist
- agonist character on S1P1 (S1P-1; in the low nanomolar range): full agonist
- agonist character on S1P3 (S1P-3; in the low nanomolar range): full agonist
- EC50 (S1P-4): 0.75 nM
- agonist character on S1P4 (S1P-4; in the low nanomolar range): partial agonist

SMILES: N[C@@](CO)(CCc1ccc(OCCc2ccc(C(F)(F)F)cc2)cc1)COP(=O)(O)O [Ex. 14, Phosphoric Acid mono-((R)-2-amino-2-hydroxymethyl-4-{4-[2-(4-trifluoromethyl-phenyl)-ethoxy]-phenyl}-butyl)ester]
- EC50 (S1P-5; [2]): 7.7 nM
- EC50 (S1P-1; [2]): 0.4 nM
- EC50 (S1P-2): > 10000 nM
- EC50 (S1P-3; [2]): 140 nM
- EC50 (S1P-4): 6.6 nM

SMILES: CCCCCCCCc1ccc(CCC(N)(CO)CO)cc1 [FTY720, 2-amino-2-[2-(4-octylphenyl)ethyl]propane-1,3-diol]
- R-enantiomer of [14C]FTY720-phosphate in blood [1]: not detectable
- enantiomer of the metabolite [14C]FTY720-phosphate in all blood samples [1]: exclusively the pharmacologically active S-enantiomer
